Results published in ChEMBL document CHEMBL1201862, “PubChem BioAssay data set” (2004).
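Results reflect a 48-hour exposure of cells in 96-well plates to compound at five concentrations. Abbreviation: GI50, concentration required for 50% inhibition of growth.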 Activity calls are given as the source filed them. No stated cut-off is given here; in the data, active = GI50 up to about 1.1 µM and inactive = higher.

What was measured:
Experiment in all cases: NCI-60 cell line screen, 48 h
SR = system: SR
NCI-H460 = system: NCI-H460
DMS-273 = system: DMS-273
OVCAR-3 = system: OVCAR-3
RXF 631 = system: RXF 631
CCRF-CEM = system: CCRF-CEM
TK-10 = system: TK-10
XF498 = system: XF498
COLO 205 = system: COLO 205
SF-295 = system: SF-295
RPMI-8226 = system: RPMI-8226
SK-MEL-5 = system: SK-MEL-5
SW-620 = system: SW-620
SF-539 = system: SF-539
KM-20L2 = system: KM-20L2
A549 = system: A549
HOP-62 = system: HOP-62
A498 = system: A498
OVCAR-5 = system: OVCAR-5
UACC-62 = system: UACC-62
LXFL 529 = system: LXFL 529
K562 = system: K562
HCT-116 = system: HCT-116
HL-60 = system: HL-60
EKVX = system: EKVX
SF-268 = system: SF-268
OVCAR-4 = system: OVCAR-4
LOX IMVI = system: LOX IMVI
CAKI-1 = system: CAKI-1
SK-MEL-28 = system: SK-MEL-28
DMS-114 = system: DMS-114
HCC 2998 = system: HCC 2998
HOP-92 = system: HOP-92
SNB-75 = system: SNB-75
MOLT-4 = system: MOLT-4
SN12C = system: SN12C
HOP-18 = system: HOP-18
SK-OV-3 = system: SK-OV-3
UO-31 = system: UO-31
KM12 = system: KM12
DLD-1 = system: DLD-1
UACC-257 = system: UACC-257
HT-29 = system: HT-29
OVCAR-8 = system: OVCAR-8
SK-MEL-2 = system: SK-MEL-2
M14 = system: M14
NCI-H23 = system: NCI-H23
NCI-H226 = system: NCI-H226
NCI-H522 = system: NCI-H522
ACHN = system: ACHN
IGROV-1 = system: IGROV-1
SNB-19 = system: SNB-19
786-0 = system: 786-0
M19-MEL = system: M19-MEL
RXF 393 = system: RXF 393
Malme-3M = system: Malme-3M
U-251 = system: U-251
HCT-15 = system: HCT-15
SNB-78 = system: SNB-78

In the case of `CCCCCCCCCC1CC(=O)Oc2cccc(O)c21` (centres undefined), the GI50 (SR) is reported as 23.2 µM (inactive), the GI50 (NCI-H460) is reported as 9.91 µM (inactive) and the GI50 (DMS-273) is reported as 4.03 µM (inactive). For the same compound, the GI50 (OVCAR-3) was 16.3 µM (inactive), the GI50 (RXF 631) was 0.617 µM (active) and the GI50 (CCRF-CEM) was 27.4 µM (inactive). For the same compound, the GI50 (TK-10) was 36.2 µM (inactive), the GI50 (XF498) was 21.6 µM (inactive) and the GI50 (COLO 205) was 16.4 µM (inactive). The GI50 (SF-295) was 11.6 µM (inactive), the GI50 (RPMI-8226) was 28.4 µM (inactive) and the GI50 (SK-MEL-5) was 15.2 µM (inactive). For the same compound, the GI50 (SW-620) was 29.2 µM (inactive), the GI50 (SF-539) was 4.18 µM (inactive) and the GI50 (KM-20L2) was 31.3 µM (inactive). The GI50 (A549) was 11.5 µM (inactive), the GI50 (HOP-62) was 34.3 µM (inactive) and the GI50 (A498) was 22.1 µM (inactive). For the same compound, the GI50 (OVCAR-5) was 28.3 µM (inactive), the GI50 (UACC-62) was 31.5 µM (inactive) and the GI50 (LXFL 529) was 24.4 µM (inactive). For the same compound, the GI50 (K562) was 24 µM (inactive), the GI50 (HCT-116) was 36.2 µM (inactive) and the GI50 (HL-60) was 27.9 µM (inactive). For the same compound, the GI50 (EKVX) was 40.7 µM (inactive), the GI50 (SF-268) was 30.3 µM (inactive) and the GI50 (OVCAR-4) was 33.7 µM (inactive). For the same compound, the GI50 (LOX IMVI) was 14 µM (inactive), the GI50 (CAKI-1) was 32.7 µM (inactive) and the GI50 (SK-MEL-28) was 29.6 µM (inactive). For the same compound, the GI50 (DMS-114) was 15.7 µM (inactive), the GI50 (HCC 2998) was 1.23 µM (inactive) and the GI50 (HOP-92) was 34 µM (inactive). The GI50 (SNB-75) was 40 µM (inactive), the GI50 (MOLT-4) was 26.7 µM (inactive) and the GI50 (SN12C) was 6.85 µM (inactive). The GI50 (HOP-18) was 51.4 µM (inactive), the GI50 (SK-OV-3) was 7.69 µM (inactive) and the GI50 (UO-31) was 19.5 µM (inactive). The GI50 (KM12) was 12.5 µM (inactive), the GI50 (DLD-1) was 27.9 µM (inactive) and the GI50 (UACC-257) was 41.3 µM (inactive). The GI50 (HT-29) was 24.1 µM (inactive), the GI50 (OVCAR-8) was 31.8 µM (inactive) and the GI50 (SK-MEL-2) was 20.6 µM (inactive). For the same compound, the GI50 (M14) was 22.7 µM (inactive), the GI50 (NCI-H23) was 3.31 µM (inactive) and the GI50 (NCI-H226) was 6.84 µM (inactive). The GI50 (NCI-H522) was 20.9 µM (inactive), the GI50 (ACHN) was 30.3 µM (inactive) and the GI50 (IGROV-1) was 20.9 µM (inactive). The GI50 (SNB-19) was 3.7 µM (inactive), the GI50 (786-0) was 10.1 µM (inactive) and the GI50 (M19-MEL) was 31.3 µM (inactive). For the same compound, the GI50 (RXF 393) was 23.8 µM (inactive), the GI50 (Malme-3M) was 18.7 µM (inactive) and the GI50 (U-251) was 2.72 µM (inactive). For the same compound, the GI50 (HCT-15) was 23.4 µM and the GI50 (SNB-78) was 42 µM (inactive).
